Laboratory results published in patent US6653354B2, “NMDA antagonist comprising xenon” (priority 1999, dated 2003).
Entries after “also recorded” stand apart in the source; their conditions may differ.

Legend:
[1] = test system: rats; assay: MAC in rats; format: in vivo; conditions: 37° C.
Protocol: (§1) The gaseous concentration of xenon which prevents a response to a painful stimulus (i.e. MAC) appears to vary among species, being 71% atm in humans (Cullen SC et al, Anesthesiology 1969, 31:305-309), 98% atm in rhesus monkeys (Whitehurst S L et al, J. Neurosurg. Anesthesiol. 1994, 6:275-279) and 161% atm in rats (Koblin D D et al, Anesth. Analg. 1998, 87:419-424). When these values are converted to free aqueous concentrations at 37° C. (Franks N P et al, Br. J. Anaesth. 1993, 71:65-76; Franks N P et al, Anesthesiology, 1996, 84:716-720) using an Ostwald water/gas partition coefficient of 0.0887 (Weathersby P K et al, Undersea Biomed. Res. 1980, 7:277-296), the values obtained are 2.5 mM, 3.4 mM and 5.6 mM for humans, monkeys and rats respectively, with the average value being 3.8 mM. For the experiments described herein, performed at room temperature, the concentration of xenon present in the standard test solution was 3.4 mM. […] This is illustrated with representative traces in FIG. 2.

[2] = test system: humans, monkeys and rats; assay: MAC as free aqueous concentration, average of humans, monkeys and rats; format: in vivo; conditions: 37° C.
Protocol: as §1

[3] = test system: GABAA receptors; assay: Currents evoked by exogenously applied GABA in voltage-clamped cultured hippocampal neurons; format: cell-based; conditions: 100% xenon; cultured rat hippocampal neurons
[4] = test system: rats; conditions: cited from earlier work
[5] = test system: cortical neuronal-glial co-culture injured with NMDA; assay: NMDA-induced neuronal injury in neuronal-glial co-culture (LDH release); format: cell-based, mouse
Protocol: (§2) Dissociated murine cortical cell cultures were prepared using whole cerebral neocortices from fetal mice (14-17 days of gestation). Cortical glial cell cultures were prepared from early postnatal mice. After halting non-neuronal cell division with cytosine arabinoside the surviving cortical neuronal cells were plated onto the glial cell background and co-cultured.
(§3) 15 days after originally harvesting the foetal cortical cells, the co-culture plates were exposed at room temperature to N-methyl,D-aspartate (NMDA), 10-1,000 μM, in a control salt solution (CCS) for 10 minutes. After carefully washing out with CCS, the cells were incubated for 6-24 hours in a Eagle's minimal essential medium free of glutamate or lactate dehydrogenase (LDH) but supplemented with glucose 25 mM, and NaHCO3 38 mM at 37° C. in humidified CO2 (5%) atmosphere. The degree of injury was determined by measuring the LDH released into the medium. A dose-response curve of NMDA-induced injury is shown in FIG. 10, as described hereinbefore.
75% of one atmosphere of xenon was delivered to the cells during and after exposure to a 750 μM NMDA, a concentration which produces a near maximal injury. The degree of injury was determined by measuring the LDH released into the medium (after correcting for “baseline” LDH release). Xenon reduced the injury produced by NMDA by more than 30%; when xenon was continued after NMDA exposure, the injury was further reduced by more than 55%. The results of the protective effect of xenon are illustrated in FIG. 12, as described hereinbefore.

[6] = test system: humans; assay: MAC / anaesthetic EC50 in humans; format: in vivo; conditions: 37° C.
Protocol: as §1

[7] = test system: c Fos expression in arcuate nucleus of hypothalamus; assay: c Fos expression in arcuate nucleus after NMA (inhibition of synaptic plasticity in vivo); set-up: species or system Sprague Dawley female adult rats; conditions: 75% Xe + NMA 100 mg/kg s.c.
Text: With exposure to NMA neuronal activation is enhanced (E vs A) which is indicative of synaptic plasticity. In the presence of both Xenon (D) and MK 801 (B), synaptic plasticity induced by NMA is inhibited. […] This is sometimes referred to as long term potentiation, an example of synaptic plasticity. […] The attenuation of c Fos expression is a reflection of the inhibition of synaptic plasticity.

[8] = test system: cortical neuronal-glial co-culture injured with glutamate; assay: Glutamate-induced neuronal injury in neuronal-glial co-culture (LDH release); format: cell-based, mouse
Protocol: as §2
as §3, with “the” for “the foetal”, “glutamate” for “N-methyl,D-aspartate (NMDA),”, “CCS from 10-30” for “a control salt solution (CCS) for 10”, “glutamate-induced” for “NMDA-induced”, “11,” for “10,”
75% of one atmosphere of xenon was delivered to the cells during and after exposure to 75 μM glutamate, a concentration which produces a near maximal injury. The degree of injury was determined by measuring the LDH released into the medium (after correcting for “baseline” LDH release). Xenon reduced the injury produced by glutamate by more than 35%; when xenon was continued after glutamate exposure, the injury was further reduced by more than 60%. The results of the protective effect of xenon are illustrated in FIG. 13, as described hereinbefore.

[9] = test system: NMDA receptors; format: cell-based, rat; conditions: 80% xenon
[10] = test system: rhesus monkeys; assay: MAC in rhesus monkeys; format: in vivo; conditions: 37° C.
Protocol: as §1

[11] = test system: rhesus monkeys; conditions: cited from earlier work

## [Xe] [xenon]
[1]
  MAC converted to free aqueous concentration: 5.6 mM
[2]
  MAC as free aqueous concentration, average value: 3.8 mM
[3]
  effect on currents activated by 3 μM GABA: not significantly affected
[4]
  gaseous concentration which prevents a response to a painful stimulus (MAC): 161 % atm
[5]; 250 μM NMDA for 10 minutes, low (sub-anaesthetic) concentrations of xenon, LDH after 6 hours
  protection against excitotoxicity (% of LDH released in the absence of xenon): Highly significant protection
[5]; 250 μM NMDA, 75% xenon
  excitotoxic injury (LDH release, normalised): greatly reduced
[5]; 75% (atm.) xenon, after 6 hours, 10 minute exposure to 250 μM NMDA
  percentage of neuroprotection: 60%
[5]; 75% of one atmosphere xenon during exposure to 750 μM NMDA
  reduction of the injury produced by NMDA (LDH release): more than 30%
[5]; 75% xenon continued after 750 μM NMDA exposure
  reduction of the injury produced by NMDA (LDH release): more than 55%
[6]
  MAC converted to free aqueous concentration: 2.5 mM
[7]
  synaptic plasticity induced by NMA (c Fos expression): is inhibited
[8]; 100 μM glutamate for 10 minutes, low, sub-anaesthetic concentrations of xenon, LDH after 6 hours
  protection against excitotoxicity (LDH release): Highly significant protection
[8]; 75% of one atmosphere xenon during exposure to 75 μM glutamate
  reduction of the injury produced by glutamate (LDH release): more than 35%
[8]; 75% xenon continued after 75 μM glutamate exposure
  reduction of the injury produced by glutamate (LDH release): more than 60%
[9]
  change of NMDA EC50 or Hill coefficient in presence of xenon: no significant change; also recorded: does not significantly change
[10]
  MAC converted to free aqueous concentration: 3.4 mM
[11]
  gaseous concentration which prevents a response to a painful stimulus (MAC): 98 % atm
